Measured values taken from US10172868B2, “Substituted quinazolines for inhibiting kinase activity” (NeuPharma, Inc., priority 2013, dated 2019).

Experiments:
EGFR (ErbB1) = EGFR (ErbB1) (Homo sapiens (Human), UniProt P00533); assay: Z'-LYTE kinase inhibition assay, EGFR; type: biochemical; settings: read-out: % inhibition against EGFR (Compound at 0.041 μM)
Experimental: Inhibitory activities of compounds against BTK, EGFR and EGFR mutants (EGFR L858R, EGFR T790M, EGFR L858R/T790M), FGFR1, FGFR2, JAK2, JAK3 and KDR were measured by Invitrogen using Z'-LYTE® Method as briefly described in the following. Test Compounds are screened in 1% DMSO (final) in the well. For 10 point titrations, 3-fold serial dilutions are conducted from the starting concentration. All ATP Solutions are diluted to a 4× working concentration in Kinase Buffer (50 mM HEPES pH 7.5, 0.01% BRIJ-35, 10 mM MgCl2, 1 mM EGTA). Peptide/Kinase Mixtures are diluted to a 2× working concentration in the appropriate Kinase Buffers as described below. (i) Peptide/Kinase Mixtures for Measurement of EGFR (ErbB1): The 2×EGFR (ErbB1)/[…] mixture is prepared in 50 mM HEPES pH 7.5, 0.01% BRIJ-35, 10 mM MgCl2. 4 mM MnCl2, 1 mM EGTA, 2 mM DTT. The final 10 μL Kinase Reaction consists of 1.1-5.25 ng EGFR (ErbB1) and 2 μM […] in 50 mM HEPES pH 7.5, 0.01% BRIJ-35, 10 mM MgCl2, 2 mM MnCl2. 1 mM EGTA, 1 mM DTT. After the 1 hour Kinase Reaction incubation, 5 μL of a 1:64 dilution of Development Reagent B is added. Reaction starts by 30-second shaking of mixture consisting of 2.5 μL 4× test compound, […] 2× kinase reaction mixture and 2.5 μL 4×ATP Solution on Bar-coded Corning, low volume NBS, black 384-well plate (Corning Cat. #3676). Then the mixture is incubated for 60-minute at room temperature for the kinase reaction, followed by addition of 5 μL of a 1:1024 dilution of development reagent A and 30-second plate shake. The mixture is then incubated for another 60-minute at room temperature for development reaction. Finally fluorescence is read by plate reader. To determine IC50 of a compound against EGFR, EGFR mutant and other kinases, a series of concentrations of the compound were tested for the inhibition.

EGFR (ErbB1) T790M L858R = EGFR (ErbB1) T790M L858R (Homo sapiens (Human), UniProt P00533, L858R/T790M); assay: Z'-LYTE kinase inhibition assay, EGFR L858R/T790M; type: biochemical; settings: read-out: % inhibition against EGFR L858R/T790M (Compound at 0.0137 μM)
EGFR (ErbB1) T790M L858R, sequence (P00533 25-1210 T790M/L858R): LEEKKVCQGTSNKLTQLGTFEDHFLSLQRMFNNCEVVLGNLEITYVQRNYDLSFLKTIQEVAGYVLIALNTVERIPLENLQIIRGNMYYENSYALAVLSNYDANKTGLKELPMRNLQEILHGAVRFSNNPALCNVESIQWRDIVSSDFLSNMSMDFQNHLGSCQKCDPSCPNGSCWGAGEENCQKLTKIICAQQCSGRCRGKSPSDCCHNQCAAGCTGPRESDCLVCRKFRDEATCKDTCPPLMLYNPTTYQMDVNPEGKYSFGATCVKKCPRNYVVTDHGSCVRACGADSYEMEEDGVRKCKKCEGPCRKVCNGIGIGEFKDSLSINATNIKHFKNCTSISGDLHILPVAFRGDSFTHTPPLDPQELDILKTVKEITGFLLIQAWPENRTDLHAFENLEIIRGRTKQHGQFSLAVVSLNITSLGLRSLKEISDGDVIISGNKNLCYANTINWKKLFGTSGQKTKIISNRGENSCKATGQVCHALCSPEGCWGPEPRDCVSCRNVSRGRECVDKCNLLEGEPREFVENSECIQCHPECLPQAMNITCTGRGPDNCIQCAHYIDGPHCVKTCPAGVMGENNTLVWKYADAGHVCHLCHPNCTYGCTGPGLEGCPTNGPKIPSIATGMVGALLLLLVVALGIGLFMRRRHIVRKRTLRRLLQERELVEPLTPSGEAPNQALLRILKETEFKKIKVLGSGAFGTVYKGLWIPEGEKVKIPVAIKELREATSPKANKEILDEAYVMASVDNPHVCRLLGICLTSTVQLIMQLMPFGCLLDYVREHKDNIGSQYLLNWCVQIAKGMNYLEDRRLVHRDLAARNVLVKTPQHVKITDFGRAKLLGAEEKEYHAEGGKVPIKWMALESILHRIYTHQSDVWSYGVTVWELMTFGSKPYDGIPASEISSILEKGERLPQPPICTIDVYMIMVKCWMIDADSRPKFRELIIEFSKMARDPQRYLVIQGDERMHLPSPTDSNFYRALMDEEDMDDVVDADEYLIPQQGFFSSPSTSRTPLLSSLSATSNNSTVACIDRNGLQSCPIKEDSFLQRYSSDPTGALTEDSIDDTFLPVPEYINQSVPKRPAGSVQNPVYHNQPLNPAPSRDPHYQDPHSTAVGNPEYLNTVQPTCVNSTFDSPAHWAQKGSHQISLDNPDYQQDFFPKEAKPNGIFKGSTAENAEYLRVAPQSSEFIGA
Experimental: Inhibitory activities of compounds against BTK, EGFR and EGFR mutants (EGFR L858R, EGFR T790M, EGFR L858R/T790M), FGFR1, FGFR2, JAK2, JAK3 and KDR were measured by Invitrogen using Z'-LYTE® Method as briefly described in the following. Test Compounds are screened in 1% DMSO (final) in the well. For 10 point titrations, 3-fold serial dilutions are conducted from the starting concentration. All ATP Solutions are diluted to a 4× working concentration in Kinase Buffer (50 mM HEPES pH 7.5, 0.01% BRIJ-35, 10 mM MgCl2, 1 mM EGTA). Peptide/Kinase Mixtures are diluted to a 2× working concentration in the appropriate Kinase Buffers as described below. (iv) Peptide/Kinase Mixtures for Measurement of EGFR (ErbB1) T790M L858R: The 2×EGFR (ErbB1) […] mixture is prepared in 50 mM HEPES pH 6.5, 0.01% BRIJ-35, 10 mM MgCl2, 1 mM EGTA, 0.02% NaN3. […] After the 1 hour Kinase Reaction incubation, 5 μL of a 1:64 dilution of Development Reagent B is added. Reaction starts by 30-second shaking of mixture consisting of 2.5 μL 4× test compound, […] 2× kinase reaction mixture and 2.5 μL 4×ATP Solution on Bar-coded Corning, low volume NBS, black 384-well plate (Corning Cat. #3676). Then the mixture is incubated for 60-minute at room temperature for the kinase reaction, followed by addition of 5 μL of a 1:1024 dilution of development reagent A and 30-second plate shake. The mixture is then incubated for another 60-minute at room temperature for development reaction. Finally fluorescence is read by plate reader. To determine IC50 of a compound against EGFR, EGFR mutant and other kinases, a series of concentrations of the compound were tested for the inhibition.

H1975 cells = assay: Inhibition of cancer cell growth, MTT assay, H1975; settings: Homo sapiens, NCI-H1975, 72 h, read-out: IC50 in H1975 cells

EGFR (ErbB1), sequence (P00533 25-1210): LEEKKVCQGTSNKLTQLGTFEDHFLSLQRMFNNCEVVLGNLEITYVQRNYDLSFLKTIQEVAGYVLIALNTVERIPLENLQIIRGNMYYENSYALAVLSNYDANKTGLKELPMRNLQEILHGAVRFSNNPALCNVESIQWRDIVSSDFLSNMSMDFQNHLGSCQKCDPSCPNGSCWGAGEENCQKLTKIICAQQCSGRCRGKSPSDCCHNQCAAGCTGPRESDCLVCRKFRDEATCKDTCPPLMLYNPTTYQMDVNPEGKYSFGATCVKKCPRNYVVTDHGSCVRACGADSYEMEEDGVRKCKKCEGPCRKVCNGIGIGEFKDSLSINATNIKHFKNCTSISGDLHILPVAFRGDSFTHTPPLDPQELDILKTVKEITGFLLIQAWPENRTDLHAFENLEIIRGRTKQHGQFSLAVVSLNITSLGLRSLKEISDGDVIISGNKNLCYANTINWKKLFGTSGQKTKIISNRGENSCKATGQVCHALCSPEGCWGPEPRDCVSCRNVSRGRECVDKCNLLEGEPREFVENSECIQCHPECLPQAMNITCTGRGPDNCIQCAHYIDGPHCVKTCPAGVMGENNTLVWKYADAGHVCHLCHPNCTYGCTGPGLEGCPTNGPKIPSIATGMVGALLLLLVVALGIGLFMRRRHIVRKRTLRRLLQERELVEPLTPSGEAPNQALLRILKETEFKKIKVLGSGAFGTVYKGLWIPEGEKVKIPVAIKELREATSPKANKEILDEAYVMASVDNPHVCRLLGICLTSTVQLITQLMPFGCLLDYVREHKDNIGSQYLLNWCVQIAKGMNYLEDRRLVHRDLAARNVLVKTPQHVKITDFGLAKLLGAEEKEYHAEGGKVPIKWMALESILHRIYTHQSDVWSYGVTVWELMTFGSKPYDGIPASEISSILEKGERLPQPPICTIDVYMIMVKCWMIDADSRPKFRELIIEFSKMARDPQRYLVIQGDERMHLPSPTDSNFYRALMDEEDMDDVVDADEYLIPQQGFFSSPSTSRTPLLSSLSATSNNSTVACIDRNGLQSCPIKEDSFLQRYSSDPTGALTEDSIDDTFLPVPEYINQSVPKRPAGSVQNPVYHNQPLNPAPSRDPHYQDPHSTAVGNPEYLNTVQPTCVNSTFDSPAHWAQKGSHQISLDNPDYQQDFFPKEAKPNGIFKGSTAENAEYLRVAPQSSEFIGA

inhibition at 0.041 µM (EGFR (ErbB1)) | inhibition at 0.0137 µM (EGFR (ErbB1) T790M L858R) | IC50 (H1975 cells) | SMILES
< 50% | < 50% | > 500 nM | C=CC(=O)Nc1cccc(-c2cccc3cnc(Nc4ccc(N5CCN(C)CC5)cc4C(=O)OC)nc23)c1 [Example C104, methyl 2-((8-(3-acrylamidophenyl)quinazolin-2-yl)amino)-5-(4-methylpiperazin-1-yl)benzoate]
< 50% | < 50% | 100 to 500 nM | C=CC(=O)Nc1cccc(-c2cccc3cnc(Nc4ccc(N5CCN(CC(N)=O)CC5)cc4F)nc23)c1 [Example C154, N-(3-(2-((4-(4-(2-amino-2-oxoethyl)piperazin-1-yl)-2-fluorophenyl)amino)quinazolin-8-yl)phenyl)acrylamide]
 | < 50% | 100 to 500 nM | C=CC(=O)Nc1cccc(-c2cccc3cnc(Nc4ccc(-n5cccn5)cc4)nc23)c1 [Example C158, N-(3-(2-((4-(1H-pyrazol-1-yl)phenyl)amino)quinazolin-8-yl)phenyl)acrylamide]
< 50% | < 50% | < 100 nM | C=CC(=O)Nc1cccc(-c2cccc3cnc(Nc4ccc(N5CCC(O)C5)cc4)nc23)c1 (stereo not shown) [Example C098, N-(3-(2-((4-(3-hydroxypyrrolidin-1-yl)phenyl)amino)quinazolin-8-yl)phenyl)acrylamide]
< 50% | < 50% | 100 to 500 nM | C=CC(=O)Nc1cccc(-c2cccc3cnc(Nc4ccc(N(C)CCF)cc4)nc23)c1F [Example C065, N-(2-fluoro-3-(2-((4-((2-fluoroethyl)(methyl)amino)phenyl)amino)quinazolin-8-yl)phenyl)acrylamide]
< 50% | < 50% | < 100 nM | C=CC(=O)Nc1cccc(-c2cccc3cnc(Nc4ccc(N5CCCC5=O)cc4)nc23)c1 [Example C096, N-(3-(2-((4-(2-oxopyrrolidin-1-yl)phenyl)amino)quinazolin-8-yl)phenyl)acrylamide]
< 50% | < 50% | > 500 nM | C=CC(=O)Nc1cccc(-c2cccc3cnc(Nc4ccc(N5CCN(C(=O)OC)CC5)cc4)nc23)c1 [Example C076, methyl 4-(4-((8-(3-acrylamidophenyl)quinazolin-2-yl)amino)phenyl)piperazine-1-carboxylate]
< 50% | < 50% | > 500 nM | C=CC(=O)Nc1cccc(-c2cccc3cnc(Nc4ccc(NCCO)cc4)nc23)c1 [Example C066, N-(3-(2-((4-((2-hydroxyethyl)amino)phenyl)amino)quinazolin-8-yl)phenyl)acrylamide]
< 50% | < 50% | < 100 nM | C=CC(=O)Nc1cccc(-c2cccc3cnc(Nc4c(F)cc(N5CCN(C)CC5)cc4F)nc23)c1 [Example C148, N-(3-(2-((2,6-difluoro-4-(4-methylpiperazin-1-yl)phenyl)amino)quinazolin-8-yl)phenyl)acrylamide]
> 50% | > 50% | 100 to 500 nM | CN(C)C/C=C/C(=O)Nc1cccc(-c2cccc3cnc(Nc4ccc(N5CCN(C)CC5)cc4)nc23)c1F [Example C062, (E)-4-(dimethylamino)-N-(2-fluoro-3-(2-((4-(4-methylpiperazin-1-yl)phenyl)amino)quinazolin-8-yl)phenyl)but-2-enamide]
< 50% | < 50% | > 500 nM | C=CC(=O)Nc1ccc(C#N)c(-c2cccc3cnc(Nc4ccc(N5CCN(C)CC5)cc4)nc23)c1 [Example C100, N-(4-cyano-3-(2-((4-(4-methylpiperazin-1-yl)phenyl)amino)quinazolin-8-yl)phenyl)acrylamide]
< 50% | < 50% | > 500 nM | C=CC(=O)N1CCN(c2cccc3cnc(Nc4ccc(N5CCN(C)CC5)cc4)nc23)CC1 [Example C070, 1-(4-(2-((4-(4-methylpiperazin-1-yl)phenyl)amino)quinazolin-8-yl)piperazin-1-yl)prop-2-en-1-one]
< 50% | > 50% | 100 to 500 nM | C=CC(=O)Nc1cccc(-c2cccc3cnc(Nc4ccc(N5CCN(C)C(C(=O)O)C5)cc4)nc23)c1 (stereo not shown) [Example C090, 4-(4-((8-(3-acrylamidophenyl)quinazolin-2-yl)amino)phenyl)-1-methylpiperazine-2-carboxylic acid]
 | < 50% | 100 to 500 nM | C=CC(=O)Nc1cccc(-c2cccc3cnc(Nc4cc(F)c(N5CCN(C)CC5)cc4F)nc23)c1 [Example C160, N-(3-(2-((2,5-difluoro-4-(4-methylpiperazin-1-yl)phenyl)amino)quinazolin-8-yl)phenyl)acrylamide]
< 50% | > 50% | < 100 nM | C=CC(=O)Nc1cccc(-c2cccc3cnc(Nc4ccc(N5CCN(CCOC)CC5)c(F)c4)nc23)c1 [Example C155, N-(3-(2-((3-fluoro-4-(4-(2-methoxyethyl)piperazin-1-yl)phenyl)amino)quinazolin-8-yl)phenyl)acrylamide]
> 50% | > 50% | < 100 nM | C=CC(=O)Nc1cccc(-c2cccc3cnc(Nc4ccc(OC5CCN(CCO)CC5)cc4F)nc23)c1 [Example C144, N-(3-(2-((2-fluoro-4-((1-(2-hydroxyethyl)piperidin-4-yl)oxy)phenyl)amino)quinazolin-8-yl)phenyl)acrylamide]
> 50% | < 50% | > 500 nM | CCC(=O)Nc1cccc(-c2c(C)ccc3cnc(Nc4ccc(N5CCN(C)CC5)cc4)nc23)c1 [Example C042, N-(3-(7-methyl-2-((4-(4-methylpiperazin-1-yl)phenyl)amino)quinazolin-8-yl)phenyl)propionamide]
 | < 50% | > 500 nM | C=CC(=O)Nc1cccc(-c2cccc3cnc(Nc4ccc(-c5cn[nH]c5)cc4)nc23)c1 [Example C159, N-(3-(2-((4-(1H-pyrazol-4-yl)phenyl)amino)quinazolin-8-yl)phenyl)acrylamide]
 |  | < 100 nM | C=CC(=O)Nc1cccc(-c2cccc3cnc(Nc4ccc(N5CCN(CCO)CC5)c(F)c4)nc23)c1 [Example C142, N-(3-(2-((3-fluoro-4-(4-(2-hydroxyethyl)piperazin-1-yl)phenyl)amino)quinazolin-8-yl)phenyl)acrylamide]
 |  | 100 to 500 nM | C=CC(=O)Nc1cccc(-c2cccc3cnc(Nc4cc(F)c(N5CCN(CC(C)(C)O)CC5)cc4F)nc23)c1 [Example C163, N-(3-(2-((2,5-difluoro-4-(4-(2-hydroxy-2-methylpropyl)piperazin-1-yl)phenyl)amino)quinazolin-8-yl)phenyl)acrylamide]
 | < 50% | > 500 nM | C=CC(=O)Nc1cccc(-c2cccc3cnc(Nc4ccc(OC5CCN(CCF)CC5)cc4F)nc23)c1 [Example C157, N-(3-(2-((2-fluoro-4-((1-(2-fluoroethyl)piperidin-4-yl)oxy)phenyl)amino)quinazolin-8-yl)phenyl)acrylamide]
